Source: ChEMBL document CHEMBL4842340, “Development of Cagrilintide, a Long-Acting Amylin Analogue” (J Med Chem, 2021)
≈ marks a conversion by molar mass, not a printed value. *1 amine or outer side, *2 acyl side, *3 side chain or, on linkers, in order; H or OH if unused. Where a SMILES comes first, the peptide text is derived from it. Bridges are numbered along the chain shown (N, C = ends). [ ]: non-standard residue; d: D form. The star is where a group is joined. C20 diacid = O=C(O)CCCCCCCCCCCCCCCCCCC(=O)*; γGlu = O=C(O)[C@H](CCC(=O)[*:2])N[*:1]; AEEA = NCCOCCOCC(=O)O

Experiments:
Rattus norvegicus [1] = species on record: Rattus norvegicus; assay: Ratio of EC50 for rat calcitonin receptor expressed in BHK-13 cells to EC50 for rat AMY3R (CT+RAMP3) expressed in tk-ts13 cells; assay type: cell-based
Homo sapiens [2] = species on record: Homo sapiens; assay: Ratio of IC50 for displacement of [125I]-calcitonin from human calcitonin receptor expressed in tk-ts 13 cells to IC50 for displacement of [125I]-amylin from human AMY3R (CTR+RAMP3) expressed in BHK-13 cells; assay type: cell-based
Insulin (Homo sapiens) [3] = biological target: Insulin (Homo sapiens) (UniProt P01308); assay: Effect on insulin (unknown origin) amyloid fibril formation assessed as peptide recovery in glycyl-glycine buffer at pH 4 measured after 45 hrs by thioflavin-T fluorescence assay relative to control; set-up: concentration or dose not given beside the values
Insulin (Homo sapiens), sequence (P01308 whole entry): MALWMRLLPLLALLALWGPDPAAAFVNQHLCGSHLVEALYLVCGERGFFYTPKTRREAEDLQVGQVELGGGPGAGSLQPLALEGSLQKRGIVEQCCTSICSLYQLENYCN

Rattus norvegicus [4] = species on record: Rattus norvegicus; assay: Ratio of IC50 for displacement of [125I]-calcitonin from rat calcitonin receptor expressed in tk-ts 13 cells to IC50 for displacement of [125I]-amylin from rat AMY3R (CTR+RAMP3) expressed in BHK-13 cells; assay type: cell-based
[5] = Displacement of [125I]-calcitonin from human calcitonin receptor expressed in tk-ts 13 cells measured after 120 mins by scintillation proximity assay; assay type: cell-based; details: tk-ts13
[6] = Agonist activity at human AMY3R (CT+RAMP3) expressed in Hollex1 cells incubated for 3 hrs by luminescence assay; assay type: cell-based; details: Hollex1, 3 h
Rattus norvegicus [7] = assay: Reduction in food intake in Sprague-Dawley rat at 30 nmol/kg, sc administered as single dose measured upto 24 hrs relative to control; assay type: functional; set-up: scale not given: the % may be the effect or the level left; details: time hrs <=24
[8] = Solubility of the compound in lactate at pH 5 by UPLC analysis; assay type: physicochemical; details: lactate buffer
[9] = Displacement of [125I]-calcitonin from rat calcitonin receptor expressed in tk-ts 13 cells measured after 120 mins by scintillation proximity assay; assay type: cell-based; details: tk-ts13
Insulin (Homo sapiens) [10] = biological target: Insulin (Homo sapiens) (UniProt P01308); assay: Effect on insulin (unknown origin) amyloid fibril formation assessed as lag time in glycyl-glycine buffer at pH 4 measured after 45 hrs by thioflavin-T fluorescence assay
[11] = Solubility of the compound in bis-tris propane at pH 8 by UPLC analysis; assay type: physicochemical; details: bis-tris propane buffer
[12] = Agonist activity at rat AMY3R (CT+RAMP3) expressed in tk-ts13 cells assessed as increase in intracellular cAMP level incuabted for 25 mins by CRE luciferase reporter gene assay; assay type: cell-based; details: tk-ts13, 25 min
[13] = Displacement of [125I]-amylin from rat AMY3R (CTR+RAMP3) expressed in BHK-13 cells measured after 120 mins by scintillation proximity assay; assay type: cell-based
[14] = Solubility of the compound in bis-tris propane at pH 7 by UPLC analysis; assay type: physicochemical; details: bis-tris propane buffer
[15] = Agonist activity at human calcitonin receptor expressed in BHK570 cells assessed as increase in intracellular cAMP concentration incubated for 3 hrs in absence of albumin by CRE luciferase reporter gene assay; assay type: cell-based; details: BHK570, 3 h
[16] = Solubility of the compound in lactate at pH 3 by UPLC analysis; assay type: physicochemical; details: lactate buffer
[17] = Agonist activity at rat calcitonin receptor expressed in BHK-13 cells assessed as increase in intracellular cAMP concentration incubated for 25 mins by CRE luciferase reporter gene assay; assay type: cell-based; details: BHK-13, 25 min
Rattus norvegicus [18] = assay: Reduction in food intake in Sprague-Dawley rat at 30 nmol/kg, sc administered as single dose measured after 24 to 48 hrs relative to control; assay type: functional; set-up: scale not given: the % may be the effect or the level left; details: time 24-48 hrs
[19] = Solubility of the compound in bis-tris propane at pH 6.5 by UPLC analysis; assay type: physicochemical; details: bis-tris propane buffer
[20] = Displacement of [125I]-amylin from human AMY3R (CTR+RAMP3) expressed in BHK-13 cells measured after 120 mins by scintillation proximity assay; assay type: cell-based
[21] = Solubility of the compound in lactate at pH 4 by UPLC analysis; assay type: physicochemical; details: lactate buffer
[22] = Solubility of the compound in bis-tris propane at pH 7.5 by UPLC analysis; assay type: physicochemical; details: bis-tris propane buffer
Homo sapiens [23] = species on record: Homo sapiens; assay: Ratio of EC50 for human calcitonin receptor expressed in BHK570 cells to EC50 for human AMY3R (CT+RAMP3) expressed in Hollex1 cells; assay type: cell-based
[24] = Solubility of the compound in bis-tris propane at pH 6 by UPLC analysis; assay type: physicochemical; details: bis-tris propane buffer
Rattus norvegicus [25] = assay: Reduction in food intake in Sprague-Dawley rat at 3 nmol/kg, sc administered as single dose measured upto 24 hrs relative to control; assay type: functional; set-up: scale not given: the % may be the effect or the level left; details: time hrs <=24
Rattus norvegicus [26] = assay: Reduction in food intake in Sprague-Dawley rat at 3 nmol/kg, sc administered as single dose measured after 24 to 48 hrs relative to control; assay type: functional; set-up: scale not given: the % may be the effect or the level left; details: time 24-48 hrs

CC[C@H](C)[C@H](NC(=O)[C@@H]1CCCN1C(=O)CNC(=O)[C@H](Cc1ccccc1)NC(=O)[C@H](CC(N)=O)NC(=O)[C@H](CC(N)=O)NC(=O)[C@H](CO)NC(=O)[C@H](CO)NC(=O)[C@H](Cc1cnc[nH]1)NC(=O)[C@H](Cc1cnc[nH]1)NC(=O)[C@H](CC(C)C)NC(=O)[C@H](Cc1ccccc1)NC(=O)[C@H](CC(N)=O)NC(=O)[C@H](C)NC(=O)[C@H](CC(C)C)NC(=O)[C@H](CCCNC(=N)N)NC(=O)[C@H](CCC(N)=O)NC(=O)[C@@H](NC(=O)[C@H](C)NC(=O)[C@@H]1CSSC[C@H](NC(=O)[C@H](CCCNC(=N)N)NC(=O)[C@H](CCCNC(=N)N)NC(=O)[C@H](CCCNC(=N)N)NC(=O)COCCOCCNC(=O)COCCOCCNC(=O)CC[C@H](NC(=O)CCCCCCCCCCCCCCCCCCC(=O)O)C(=O)O)C(=O)N[C@@H](CC(N)=O)C(=O)N[C@@H]([C@@H](C)O)C(=O)N[C@@H](C)C(=O)N[C@@H]([C@@H](C)O)C(=O)N1)[C@@H](C)O)C(=O)N[C@@H](CC(C)C)C(=O)N1CCC[C@H]1C(=O)N1CCC[C@H]1C(=O)N[C@H](C(=O)N[C@@H](CC(N)=O)C(=O)N[C@H](C(=O)NCC(=O)N[C@@H](CO)C(=O)N[C@@H](CCCNC(=N)N)C(=O)N[C@H](C(=O)N[C@@H](Cc1ccc(O)cc1)C(N)=O)[C@@H](C)O)C(C)C)[C@@H](C)O ({C20 diacid-γGlu-AEEA-AEEA}-RRRCNTATCATQRLANFLHHSSNNFGPILPPTNVGSRTY-NH2; disulfide 4-9)
Ratio EC50 (Rattus norvegicus [1]): 93 | Ratio IC50 (Homo sapiens [2]): 43 | Activity (Insulin (Homo sapiens) [3]): 93% | Ratio IC50 (Rattus norvegicus [4]): 138 | IC50 [5]: 9.18 nM | EC50 [6]: 0.076 nM | Activity (Rattus norvegicus [7]): 32% | solubility [8]: 200 µM (≈ 1020 µg/mL) | IC50 [9]: 89.2 nM | TIME (Insulin (Homo sapiens) [10]): 45 h | solubility [11]: 200 µM (≈ 1020 µg/mL) | EC50 [12]: 0.13 nM | IC50 [13]: 0.648 nM | solubility [14]: 200 µM (≈ 1020 µg/mL) | EC50 [15]: 1.24 nM | solubility [16]: 200 µM (≈ 1020 µg/mL) | EC50 [17]: 12.1 nM | Activity (Rattus norvegicus [18]): 0% | solubility [19]: 200 µM (≈ 1020 µg/mL) | IC50 [20]: 0.213 nM | solubility [21]: 200 µM (≈ 1020 µg/mL) | solubility [22]: 200 µM (≈ 1020 µg/mL) | Ratio EC50 (Homo sapiens [23]): 16 | solubility [24]: 200 µM (≈ 1020 µg/mL)

CC[C@H](C)[C@H](NC(=O)[C@@H]1CCCN1C(=O)CNC(=O)[C@H](Cc1ccccc1)NC(=O)[C@H](CC(N)=O)NC(=O)[C@H](CC(N)=O)NC(=O)[C@H](CO)NC(=O)[C@H](CO)NC(=O)[C@H](CCC(=O)O)NC(=O)[C@H](Cc1cnc[nH]1)NC(=O)[C@H](CC(C)C)NC(=O)[C@H](Cc1ccccc1)NC(=O)[C@H](CCC(=O)O)NC(=O)[C@H](C)NC(=O)[C@H](CC(C)C)NC(=O)[C@H](CCCNC(=N)N)NC(=O)[C@H](CCC(N)=O)NC(=O)[C@@H](NC(=O)[C@H](C)NC(=O)[C@@H]1CSSC[C@H](NC(=O)[C@H](Cc2cnc[nH]2)NC(=O)CC[C@H](NC(=O)CCCCCCCCCCCCCCCCCCC(=O)O)C(=O)O)C(=O)N[C@@H](CC(N)=O)C(=O)N[C@@H]([C@@H](C)O)C(=O)N[C@@H](C)C(=O)N[C@@H]([C@@H](C)O)C(=O)N1)[C@@H](C)O)C(=O)N[C@@H](CC(C)C)C(=O)N1CCC[C@H]1C(=O)N1CCC[C@H]1C(=O)N[C@H](C(=O)N[C@@H](CC(N)=O)C(=O)N[C@H](C(=O)NCC(=O)N[C@@H](CO)C(=O)N[C@@H](CC(N)=O)C(=O)N[C@H](C(=O)N[C@@H](Cc1ccc(O)cc1)C(N)=O)[C@@H](C)O)C(C)C)[C@@H](C)O ({C20 diacid-γGlu}-HCNTATCATQRLAEFLHESSNNFGPILPPTNVGSNTY-NH2; disulfide 2-7)
Ratio EC50 (Rattus norvegicus [1]): 6 | Ratio IC50 (Homo sapiens [2]): 13 | Activity (Insulin (Homo sapiens) [3]): 0% | Ratio IC50 (Rattus norvegicus [4]): 24 | IC50 [5]: 1.75 nM | EC50 [6]: 0.083 nM | Activity (Rattus norvegicus [7]): 93% | solubility [8]: 200 µM (≈ 891 µg/mL) | IC50 [9]: 0.812 nM | TIME (Insulin (Homo sapiens) [10]): 11 h | solubility [11]: 138 µM (≈ 615 µg/mL) | EC50 [12]: 0.063 nM | Activity (Rattus norvegicus [25]): 50% | IC50 [13]: 0.034 nM | solubility [14]: 15 µM (≈ 66.9 µg/mL) | EC50 [15]: 0.128 nM | solubility [16]: 200 µM (≈ 891 µg/mL) | EC50 [17]: 0.355 nM | Activity (Rattus norvegicus [18]): 92% | solubility [19]: 16 µM (≈ 71.3 µg/mL) | IC50 [20]: 0.137 nM | solubility [21]: 200 µM (≈ 891 µg/mL) | solubility [22]: 58 µM (≈ 259 µg/mL) | Ratio EC50 (Homo sapiens [23]): 2 | Activity (Rattus norvegicus [26]): 45% | solubility [24]: 52 µM (≈ 232 µg/mL)

CC[C@H](C)[C@H](NC(=O)[C@@H]1CCCN1C(=O)CNC(=O)[C@H](Cc1ccccc1)NC(=O)[C@H](CC(N)=O)NC(=O)[C@H](CC(N)=O)NC(=O)[C@H](CO)NC(=O)[C@H](CO)NC(=O)[C@H](Cc1cnc[nH]1)NC(=O)[C@H](Cc1cnc[nH]1)NC(=O)[C@H](CC(C)C)NC(=O)[C@H](Cc1ccccc1)NC(=O)[C@H](CC(N)=O)NC(=O)[C@H](C)NC(=O)[C@H](CC(C)C)NC(=O)[C@H](CCCNC(=N)N)NC(=O)[C@H](CCC(N)=O)NC(=O)[C@@H](NC(=O)[C@H](C)NC(=O)[C@@H]1CSSC[C@H](NC(=O)[C@H](Cc2cnc[nH]2)NC(=O)CC[C@H](NC(=O)[C@H](Cc2cnc[nH]2)NC(=O)[C@H](Cc2cnc[nH]2)NC(=O)CCCCCCCCCCCCCCCCCCC(=O)O)C(=O)O)C(=O)N[C@@H](CC(N)=O)C(=O)N[C@@H]([C@@H](C)O)C(=O)N[C@@H](C)C(=O)N[C@@H]([C@@H](C)O)C(=O)N1)[C@@H](C)O)C(=O)N[C@@H](CC(C)C)C(=O)N1CCC[C@H]1C(=O)N1CCC[C@H]1C(=O)N[C@H](C(=O)N[C@@H](CC(N)=O)C(=O)N[C@H](C(=O)NCC(=O)N[C@@H](CO)C(=O)N[C@@H](CC(N)=O)C(=O)N[C@H](C(=O)N[C@@H](Cc1ccc(O)cc1)C(N)=O)[C@@H](C)O)C(C)C)[C@@H](C)O ({C20 diacid}-HH[γGlu]HCNTATCATQRLANFLHHSSNNFGPILPPTNVGSNTY-NH2; disulfide 5-10)
Ratio EC50 (Rattus norvegicus [1]): 42 | Ratio IC50 (Homo sapiens [2]): 6 | Activity (Insulin (Homo sapiens) [3]): 9% | Ratio IC50 (Rattus norvegicus [4]): 22 | IC50 [5]: 1.3 nM | EC50 [6]: 0.074 nM | Activity (Rattus norvegicus [7]): 75% | solubility [8]: 200 µM (≈ 945 µg/mL) | IC50 [9]: 3.33 nM | TIME (Insulin (Homo sapiens) [10]): 6 h | solubility [11]: 1 µM (≈ 4.72 µg/mL) | EC50 [12]: 0.335 nM | Activity (Rattus norvegicus [25]): 32% | IC50 [13]: 0.149 nM | solubility [14]: 1 µM (≈ 4.72 µg/mL) | EC50 [15]: 0.136 nM | solubility [16]: 200 µM (≈ 945 µg/mL) | EC50 [17]: 14.1 nM | Activity (Rattus norvegicus [18]): 44% | solubility [19]: 1 µM (≈ 4.72 µg/mL) | IC50 [20]: 0.216 nM | solubility [21]: 200 µM (≈ 945 µg/mL) | solubility [22]: 1 µM (≈ 4.72 µg/mL) | Ratio EC50 (Homo sapiens [23]): 2 | Activity (Rattus norvegicus [26]): 4% | solubility [24]: 1 µM (≈ 4.72 µg/mL)
